In patent US12649751B2 (Arcus Biosciences, Inc., priority 2022, dated 2026):

What follows are molecules tested against HPK1 (Homo sapiens, UniProt Q92918) (assay: HPK1 Biochemical Assay (ADP-Glo luminescence; low ATP 10 μM or high ATP 200 μM)). Settings: 2 nM HPK1, 10 μM ATP; read-out: Biochemical Potency (low ATP).
Sequence of HPK1 (Q92918 whole entry, species assumed): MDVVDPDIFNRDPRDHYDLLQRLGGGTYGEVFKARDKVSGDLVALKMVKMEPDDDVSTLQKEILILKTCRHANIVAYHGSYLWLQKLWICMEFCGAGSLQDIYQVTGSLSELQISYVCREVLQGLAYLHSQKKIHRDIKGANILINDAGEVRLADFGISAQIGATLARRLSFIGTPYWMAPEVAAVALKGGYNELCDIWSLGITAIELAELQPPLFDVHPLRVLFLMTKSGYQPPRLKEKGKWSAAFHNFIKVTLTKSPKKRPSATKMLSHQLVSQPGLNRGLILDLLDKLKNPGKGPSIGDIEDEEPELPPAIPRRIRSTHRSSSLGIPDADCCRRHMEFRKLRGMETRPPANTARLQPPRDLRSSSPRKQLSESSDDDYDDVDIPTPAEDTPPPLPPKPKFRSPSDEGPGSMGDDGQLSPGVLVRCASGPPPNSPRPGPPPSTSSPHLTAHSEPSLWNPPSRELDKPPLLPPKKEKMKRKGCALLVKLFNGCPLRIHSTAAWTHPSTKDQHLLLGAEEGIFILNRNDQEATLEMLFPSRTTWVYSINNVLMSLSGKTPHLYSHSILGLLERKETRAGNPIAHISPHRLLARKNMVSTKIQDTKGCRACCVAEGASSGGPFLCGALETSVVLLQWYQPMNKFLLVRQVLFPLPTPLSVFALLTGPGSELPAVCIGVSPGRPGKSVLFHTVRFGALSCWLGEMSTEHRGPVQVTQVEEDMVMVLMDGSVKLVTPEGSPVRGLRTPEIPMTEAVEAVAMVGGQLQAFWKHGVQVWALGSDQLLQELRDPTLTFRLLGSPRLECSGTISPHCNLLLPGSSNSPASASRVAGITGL

`Cc1ccc(Nc2cc3nc(-c4cnn(C(F)(F)F)c4)sc3cn2)nc1CN1CCCC1` [Example 36, 5-Methyl-6-[(pyrrolidin-1-yl)methyl]-N-{2-[1-(trifluoromethyl)-1H-pyrazol-4-yl]-[1,3]thiazolo[5,4-c]pyridin-6-yl}pyridin-2-amine] and `Cc1ccc(Nc2cc3nc(-c4cncnc4)sc3cn2)nc1CN1CCCC1` [Example 58, 5-Methyl-N-[2-(pyrimidin-5-yl)-[1,3]thiazolo[5,4-c]pyridin-6-yl]-6-[(pyrrolidin-1-yl)methyl]pyridin-2-amine] fall in the same range of IC50: 100 to 1000 nM for the first, 100 to 1000 nM for the second.

First: Cc1cccnc1-c1nc2cc(Nc3nccc(N4C[C@@H](N)C[C@H]4CO)n3)ncc2s1 [Example 242, [(2S,4S)-4-amino-1-(2-{[2-(3-Methylpyridin-2-yl)-[1,3]thiazolo[5,4-c]pyridin-6-yl]amino}pyrimidin-4-yl)pyrrolidin-2-yl]methanol]
Second: Cc1cccnc1-c1nc2cc(Nc3ccc(C)c(N4C[C@H](O)C[C@H]4CO)n3)ncc2s1 [Example 77, (3R,5S)-5-(Hydroxymethyl)-1-(3-methyl-6-{[2-(3-methylpyridin-2-yl)-[1,3]thiazolo[5,4-c]pyridin-6-yl]amino}pyridin-2-yl)pyrrolidin-3-ol]
The IC50 of the first is higher: 100 to 1000 nM for the first, less than 100 nM for the second. The second is the more potent here.

Compared with `Cc1cccnc1-c1nc2cc(Nc3cccc(N4CCN(C)C[C@@H]4C)n3)ncc2s1` [Example 95, 6-[(2S)-2,4-Dimethylpiperazin-1-yl]-N-[2-(3-methylpyridin-2-yl)-[1,3]thiazolo[5,4-c]pyridin-6-yl]pyridin-2-amine], `Cc1cccnc1-c1nc2cc(Nc3ccnc(N4C[C@@H]5C[C@H]4CN5C)n3)ncc2s1` [Example 158, 2-[(1S,4S)-5-Methyl-2,5-diazabicyclo[2.2.1]heptan-2-yl]-N-[2-(3-methylpyridin-2-yl)-[1,3]thiazolo[5,4-c]pyridin-6-yl]pyrimidin-4-amine] is lower in IC50: 1000 to 5000 nM for the first, less than 100 nM for the second.

`Cc1ccc(Nc2cc3nc(-c4cccc(F)c4)sc3cn2)nc1CN1CCCC1` [Example 34] and `Cc1ccc(Nc2cc3nc(-c4ccc(F)cc4)sc3cn2)nc1CN1CCCC1` [Example 32, N-[2-(4-Fluorophenyl)-[1,3]thiazolo[5,4-c]pyridin-6-yl]-5-methyl-6-[(pyrrolidin-1-yl)methyl]pyridin-2-amine] cannot be ordered by IC50: less than 100 nM for the first, less than 100 nM for the second.

Compared with `Cc1ccc(Nc2cc3nc(-c4ncccc4C(C)C)sc3cn2)nc1CN1CCCC1` [Example 50, 5-Methyl-N-{2-[3-(propan-2-yl)pyridin-2-yl]-[1,3]thiazolo[5,4-c]pyridin-6-yl}-6-[(pyrrolidin-1-yl)methyl]pyridin-2-amine], `Cc1ccc(Nc2cc3nc(-c4ncccn4)sc3cn2)nc1CN1CCCC1` [Example 55, 5-Methyl-N-[2-(pyrimidin-2-yl)-[1,3]thiazolo[5,4-c]pyridin-6-yl]-6-[(pyrrolidin-1-yl)methyl]pyridin-2-amine] is higher in IC50: less than 100 nM for the first, 100 to 1000 nM for the second.

Compared with `c1cc(C2CCOCC2)c(CN2CCCC2)nc1Nc1cc2nc(N3CCCC3)sc2cn1` [Example 231, 5-(Oxan-4-yl)-N-[2-(pyrrolidin-1-yl)-[1,3]thiazolo[5,4-c]pyridin-6-yl]-6-[(pyrrolidin-1-yl)methyl]pyridin-2-amine], `C[C@H]1CCCCN1c1nc2cc(Nc3ccc(C4CCOCC4)c(CN4CCCC4)n3)ncc2s1` [Example 236, N-{2-[(2S)-2-Methylpiperidin-1-yl]-[1,3]thiazolo[5,4-c]pyridin-6-yl}-5-(oxan-4-yl)-6-[(pyrrolidin-1-yl)methyl]pyridin-2-amine] is lower in IC50: 100 to 1000 nM for the first, less than 100 nM for the second. The second is the more potent here.

`Cc1ccn(-c2nc3cc(Nc4ccc(N5CCOCC5)c(CN5CCCC5)n4)ncc3s2)n1` [Example 195, N-[2-(3-Methyl-1H-pyrazol-1-yl)-[1,3]thiazolo[5,4-c]pyridin-6-yl]-5-(morpholin-4-yl)-6-[(pyrrolidin-1-yl)methyl]pyridin-2-amine] and `c1n[nH]cc1-c1nc2cc(Nc3ccc(N4CCOCC4)c(CN4CCCC4)n3)ncc2s1` [Example 25, 5-(Morpholin-4-yl)-N-[2-(1H-pyrazol-4-yl)-[1,3]thiazolo[5,4-c]pyridin-6-yl]-6-[(pyrrolidin-1-yl)methyl]pyridin-2-amine] cannot be ordered by IC50: less than 100 nM for the first, less than 100 nM for the second.

First: Fc1ccc(-c2nc3cc(Nc4ccc(C5CCOCC5)c(CN5CCCC5)n4)ncc3s2)cc1 [Example 223]
Second: C[C@@H]1CCCN1c1nc2cc(Nc3ccc(C4CCOCC4)c(CN4CCCC4)n3)ncc2s1 [Example 229, N-{2-[(2R)-2-Methylpyrrolidin-1-yl]-[1,3]thiazolo[5,4-c]pyridin-6-yl}-5-(oxan-4-yl)-6-[(pyrrolidin-1-yl)methyl]pyridin-2-amine]
The IC50 of the first is lower: less than 100 nM for the first, 100 to 1000 nM for the second. The first is the more potent here.

`CN1C[C@@H]2C[C@H]1CN2c1cncc(Nc2cc3nc(-c4ccnc(C(C)(C)O)c4)sc3cn2)n1` [Example 151, 2-{4-[6-({6-[(1S,4S)-5-Methyl-2,5-diazabicyclo[2.2.1]heptan-2-yl]pyrazin-2-yl}amino)-[1,3]thiazolo[5,4-c]pyridin-2-yl]pyridin-2-yl}propan-2-ol] and `CN1C[C@@H]2C[C@H]1CN2c1cncc(Nc2cc3nc(-c4ncco4)sc3cn2)n1` [Example 156, 6-[(1S,4S)-5-Methyl-2,5-diazabicyclo[2.2.1]heptan-2-yl]-N-[2-(1,3-oxazol-2-yl)-[1,3]thiazolo[5,4-c]pyridin-6-yl]pyrazin-2-amine] cannot be ordered by IC50: less than 100 nM for the first, less than 100 nM for the second.

`Cc1cc(Nc2cc3nc(N4CCC[C@@H](O)C4)sc3cn2)nc(O[C@H]2CCNC2)c1` [Example 193, (3R)-1-(6-{[4-Methyl-6-((3S)-pyrrolidin-3-yloxy)pyridin-2-yl]amino}-[1,3]thiazolo[5,4-c]pyridin-2-yl)piperidin-3-ol] and `Cc1cc(Nc2cc3nc(-c4ncccc4C)sc3cn2)nc(O[C@H]2CCCNC2)c1` [Example 161, 4-Methyl-N-[2-(3-methylpyridin-2-yl)-[1,3]thiazolo[5,4-c]pyridin-6-yl]-6-[(3S)-piperidin-3-yloxy]pyridin-2-amine] cannot be ordered by IC50: less than 100 nM for the first, less than 100 nM for the second.

`CN1C[C@@H]2C[C@H]1CN2c1cncc(Nc2cc3nc(-c4cc(N5CC[C@@H](F)C5)ccn4)sc3cn2)n1` [Example 125, N-(2-{4-[(3R)-3-Dluoropyrrolidin-1-yl]pyridin-2-yl}-[1,3]thiazolo[5,4-c]pyridin-6-yl)-6-[(1S,4S)-5-methyl-2,5-diazabicyclo[2.2.1]heptan-2-yl]pyrazin-2-amine] and `CN1C[C@@H]2C[C@H]1CN2c1cncc(Nc2cc3nc(-c4cccc(N5CCCC5=O)c4)sc3cn2)n1` [Example 143, 1-{3-[6-({6-[(1S,4S)-5-Methyl-2,5-diazabicyclo[2.2.1]heptan-2-yl]pyrazin-2-yl}amino)-[1,3]thiazolo[5,4-c]pyridin-2-yl]phenyl}pyrrolidin-2-one] cannot be ordered by IC50: less than 100 nM for the first, less than 100 nM for the second.

First: Cc1ccc(Nc2cc3nc(-c4cc(F)cc(F)c4)sc3cn2)nc1CN1CCCC1 [Example 33, N-[2-(3,5-Difluorophenyl)-[1,3]thiazolo[5,4-c]pyridin-6-yl]-5-methyl-6-[(pyrrolidin-1-yl)methyl]pyridin-2-amine]
Second: Cc1ccc(Nc2cc3nc(-c4ncccc4C)sc3cn2)nc1CN1CCCC1(C)C [Example 47, 6-[(2,2-Dimethylpyrrolidin-1-yl)methyl]-5-methyl-N-[2-(3-methylpyridin-2-yl)-[1,3]thiazolo[5,4-c]pyridin-6-yl]pyridin-2-amine]
The IC50 of the first is higher: 100 to 1000 nM for the first, less than 100 nM for the second. The second is the more potent here.

`Cc1ccc(Nc2cc3nc(-c4ncccc4C)sc3cn2)nc1CN1CCC[C@H]1CO` [Example 48, [(2S)-1-[(3-Methyl-6-{[2-(3-methylpyridin-2-yl)-[1,3]thiazolo[5,4-c]pyridin-6-yl]amino}pyridin-2-yl)methyl]pyrrolidin-2-yl]methanol] and `CN1C[C@@H]2C[C@H]1CN2c1nccc(Nc2cc3nc(-c4cccc(C(=O)N5CCCC5)c4)sc3cn2)n1` [Example 126, 2-[(1S,4S)-5-Methyl-2,5-diazabicyclo[2.2.1]heptan-2-yl]-N-{2-[3-(pyrrolidine-1-carbonyl)phenyl]-[1,3]thiazolo[5,4-c]pyridin-6-yl}pyrimidin-4-amine] cannot be ordered by IC50: less than 100 nM for the first, less than 100 nM for the second.

Same assay, conditions: HPK1 ADP-Glo assay, high ATP (200 μM ATP, 5 nM HPK1); read-out: Biochemical Potency (high ATP)

`Cc1cc(Nc2cc3nc(-c4cccc(C(=O)N(C)[C@@H]5CCCOC5)c4)sc3cn2)nc(N2C[C@@H]3C[C@H]2CN3CCO)n1` [Example 542] and `Cc1cc(Nc2cc3nc(-c4cccc(C(=O)N(C)[C@@H]5CCOC5)c4)sc3cn2)nc(N2C[C@@H]3C[C@H]2CN3CCO)n1` [Example 559] cannot be ordered by IC50: less than 100 nM for the first, less than 100 nM for the second.

Same assay, conditions: HPK1 ADP-Glo assay, low ATP (10 μM ATP, 2 nM HPK1); read-out: Biochemical Potency (low ATP)

`CN1C[C@@H]2C[C@H]1CN2c1nccc(Nc2cc3nc(-c4ccnc(N5CC[C@H](F)C5)c4)sc3cn2)n1` [Example 463] and `CN1C[C@@H]2C[C@H]1CN2c1nccc(Nc2cc3nc(-c4ccnc5c4cnn5C)sc3cn2)n1` [Example 411] cannot be ordered by IC50: less than 100 nM for the first, less than 100 nM for the second.

`Cc1cccnc1-c1nc2cc(Nc3cccc(C4(O)C[C@@H]5CC4CN5)n3)ncc2s1` (some centres unmarked) [Example 314, 5-{6-[2-(3-methyl-2-pyridyl)-3-thia-1,5-diaza-6-indenylamino]-2-pyridyl}-2-azabicyclo[2.2.1]heptan-5-ol] and `Cc1cccnc1-c1nc2cc(Nc3ccc4cccc(C(C)(C)N)c4n3)ncc2s1` [Example 306, 6-[8-(1-amino-1-methylethyl)-2-quinolylamino]-2-(3-methyl-2-pyridyl)-3-thia-1,5-diazaindene] cannot be ordered by IC50: less than 100 nM for the first, less than 100 nM for the second.

`c1cnn(-c2nc3cc(Nc4cc(C5CCOCC5)nc(N5C[C@@H]6C[C@H]5CN6)n4)ncc3s2)c1` [Example 437] and `CN1C[C@@H]2C[C@H]1CN2c1nc(Nc2cc3nc(-c4ccnc(C(C)(C)O)c4)sc3cn2)cc(C2CCOCC2)n1` [Example 439] cannot be ordered by IC50: less than 100 nM for the first, less than 100 nM for the second.

In the case of `Cc1cccnc1-c1nc2cc(Nc3cc(C4CCNC4)nc(N4CCC(F)(F)C4)n3)ncc2s1` (centres unmarked) [Example 319, [2-(3,3-difluoro-1-pyrrolidinyl)-6-(3-pyrrolidinyl)-4-pyrimidinyl][2-(3-methyl-2-pyridyl)-3-thia-1,5-diaza-6-indenyl]amine], the IC50 is reported as 100 to 1000 nM.
